Assay results taken from US8735425B2, “Tetrahydroisoquinoline derivative” (Daiichi Sankyo Company, Limited, priority 2008, dated 2014).

What was measured:
[1] = tested on: Male C57BL/6N mice; experiment: Triglyceride absorption suppression after fat loading (in vivo DGAT1 inhibitory effect); conditions: Mus musculus, po; dose of 10 mg/kg or lower, orally administered, mice fasted overnight, plasma triglyceride after fat loading; read-out: Triglyceride absorption suppressive activity
Procedure: The DGAT1 enzyme is important for the digestion and absorption of triglycerides, and the inhibition of DGAT1 in the small intestine suppresses the absorption of triglycerides. The in vivo activity of its DGAT1 inhibitory effect was evaluated with the suppressed absorption of triglycerides after fat loading as an index. Male C57BL/6N mice (7-12 weeks old, body weight: 17-25 g, Charles River Laboratories Japan Inc.) fasted overnight were assigned to Vehicle group 1, Vehicle group 2, and each test compound group, to which a vehicle (0.5% methylcellulose) or each test compound (1 to 10 mg/kg) suspended in vehicle was orally administered (5 mL/kg). After a given time, a lipoprotein lipase inhibitor (Pluronic-F127: Sigma-Aldrich Corp., 1 g/kg, 20% by weight dissolved in saline) was intraperitoneally administered (5 mL/kg) to each group. Immediately thereafter, distilled water for the Vehicle group 1 or a 20% fat-containing emulation (Intralipid 20%: TERUMO CORP., Japan) for the Vehicle group 2 and the compound groups were orally administered thereto (0.2 mL/mouse). After a given time of 1 to 4 hours after administration, blood was collected from the tail vein or the right ventricle, and plasma was immediately separated and collected. Then, the triglyceride concentration in plasma was measured using a commercially available kit (Triglyceride E-Test Wako: Wako Pure Chemical Industries, Ltd.). In this method, the administration of the lipoprotein lipase inhibitor suppresses the hydrolysis of triglycerides in the blood such that the triglycerides are accumulated in the blood. These triglycerides are derived from two origins: exogenous triglycerides absorbed in the gastrointestinal tract and endogenous triglycerides released from the liver. The triglyceride absorption suppressive activity of each test compound was calculated based on the equation shown below by removing the influence of the endogenous triglycerides. In this context, each test compound was separately confirmed to have no influence on the concentration of the endogenous triglycerides.
Triglyceride absorption suppressive activity (%)=100−[(Triglyceride concentration of each test compound group)−(Triglyceride concentration of Vehicle group 1)]/[(Triglyceride concentration of Vehicle group 2)−(Triglyceride concentration of Vehicle group 1)]×100

[2] = target: T1, DGAT1 enzyme (Homo sapiens, UniProt O75907); experiment: DGAT1 inhibitory activity test; assay type: biochemical; conditions: test compound concentration of 0.05 μg/ml; read-out: Inhibitory Rate
T1 construct: made in house
T1 sequence (O75907 1-488): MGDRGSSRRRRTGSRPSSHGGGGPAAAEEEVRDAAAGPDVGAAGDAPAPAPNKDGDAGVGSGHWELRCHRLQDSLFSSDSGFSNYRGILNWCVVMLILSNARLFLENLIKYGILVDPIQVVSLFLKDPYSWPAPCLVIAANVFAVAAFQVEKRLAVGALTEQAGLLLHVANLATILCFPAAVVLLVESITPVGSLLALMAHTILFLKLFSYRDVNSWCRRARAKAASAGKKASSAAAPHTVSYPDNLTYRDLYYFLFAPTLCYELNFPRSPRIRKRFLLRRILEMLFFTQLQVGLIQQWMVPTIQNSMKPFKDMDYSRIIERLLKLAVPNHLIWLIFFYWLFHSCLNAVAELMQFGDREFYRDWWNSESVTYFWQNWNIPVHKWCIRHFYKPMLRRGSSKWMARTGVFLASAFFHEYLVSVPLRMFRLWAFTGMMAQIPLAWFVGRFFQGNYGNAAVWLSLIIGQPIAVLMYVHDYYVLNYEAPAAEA
Procedure: DGAT1 enzyme was prepared and stored according to the method described in US2007/0249620.
(2) DGAT1 Inhibitory Activity Test
A reaction solution having the following composition was incubated at room temperature (23° C.) for 30 minutes: 175 mM Tris-HCl (pH 8.0), 8 mM MgCl2, 1 mg/ml BSA, 0.3 mM 1,2-dioleoyl-sn-glycerol (10-fold concentration of EtOH solution, 10% added), 10 μM [^14C]-oleoyl-CoA (approximately 50 mCi/mmol), 0.5% Triton X-100, the DGAT1 enzyme (10 μg) obtained in Test Example 1(1), and a test compound or vehicle (DMSO/MeOH, 7:3 solution, 5% added), […] in total. A reaction stop solution ([…] consisting of isopropanol/1-heptane/water (80:20:2, v/v/v) was added to the reaction solution and stirred. Subsequently, water (30 μl) and 1-heptane (100 μl) were added thereto and stirred. The 1-heptane layer (50 μl) was spotted onto a TLC plate and developed with a developing solvent consisting of 1-hexane/diethyl ether/acetic acid (85:15:1, v/v/v). The radioactivity of the triglyceride fraction was quantified using BAS2000 Bio Image Analyzer (FUJIFILM) and compared with the control. The inhibitory activity of the test compound was calculated according to the formula shown below. In this context, the radioactivity at no reaction (0 minute incubation) was used as background. Inhibitory Rate=100−[(Radioactivity of sample supplemented with test compound)−(Background)]/[(Radioactivity of control)−(Background)]×100

| SMILES | inhibition at 0.05 µg/mL [2] [%] | inhibition in vivo at up to 10 mg/kg [1] [%] |
| --- | --- | --- |
| COc1ccc(F)cc1NC(=O)Nc1ccc2c(c1)CCN(C(=O)O[C@H]1CC[C@H](CC(=O)O)CC1)C2 [Example 22, trans-6-[3-(5-fluoro-2-methoxy-phenyl)-ureido]-3,4-dihydro-1H-isoquinoline-2-carboxylic acid 4-carboxymethyl-cyclohexyl ester] | ≥ 50 | ≥ 60 |
| COc1ccc(C)cc1NC(=O)Nc1ccc2c(c1)CCN(C(=O)O[C@H]1CC[C@H](CC(=O)O)CC1)C2 [Example 23, trans-6-[3-(2-methoxy-5-methyl-phenyl)-ureido]-3,4-dihydro-1H-isoquinoline-2-carboxylic acid 4-carboxymethyl-cyclohexyl ester] | ≥ 50 | ≥ 60 |
| COc1ncccc1NC(=O)Nc1ccc2c(c1)CCN(C(=O)O[C@H]1CC[C@H](CC(=O)O)CC1)C2 [Example 24, trans-6-[3-(2-methoxy-pyridin-3-yl)-ureido]-3,4-dihydro-1H-isoquinoline-2-carboxylic acid 4-carboxymethyl-cyclohexyl ester] | ≥ 50 | ≥ 60 |
| O=C(O)C[C@H]1CC[C@H](OC(=O)N2CCc3cc(Nc4nc5ccccc5o4)ccc3C2)CC1 [Example 25, trans-6-(benzoxazol-2-ylamino)-3,4-dihydro-1H-isoquinoline-2-carboxylic acid 4-carboxymethyl-cyclohexyl ester] | ≥ 50 | ≥ 60 |
| CCOc1ccc(F)cc1NC(=O)Nc1ccc2c(c1)CCN(C(=O)O[C@H]1CC[C@H](CC(=O)O)CC1)C2 [Example 27, trans-6-[3-(2-ethoxy-5-fluoro-phenyl)-ureido]-3,4-dihydro-1H-isoquinoline-2-carboxylic acid 4-carboxymethyl-cyclohexyl ester] | ≥ 50 | ≥ 60 |
| O=C(O)C[C@H]1CC[C@H](OC(=O)N2CCc3cc(NC(=O)Nc4cc(F)c(F)cc4F)ccc3C2)CC1 [Example 31, trans-6-[3-(2,4,5-trifluoro-phenyl)-ureido]-3,4-dihydro-1H-isoquinoline-2-carboxylic acid 4-carboxymethyl-cyclohexyl ester] | ≥ 50 | ≥ 60 |

Second part, led by results:

| inhibition at 0.05 µg/mL [2] [%] | SMILES | inhibition in vivo at up to 10 mg/kg [1] [%] |
| --- | --- | --- |
| ≥ 50 | CCOc1ccccc1NC(=O)Nc1ccc2c(c1)CCN(C(=O)O[C@H]1CC[C@H](CC(=O)O)CC1)C2 [Example 26, trans-6-[3-(2-ethoxy-phenyl)-ureido]-3,4-dihydro-1H-isoquinoline-2-carboxylic acid 4-carboxymethyl-cyclohexyl ester] | ≥ 60 |
| ≥ 50 | CC(C)c1ccccc1NC(=O)Nc1ccc2c(c1)CCN(C(=O)O[C@H]1CC[C@H](CC(=O)O)CC1)C2 [Example 28, trans-6-[3-(2-isopropyl-phenyl)-ureido]-3,4-dihydro-1H-isoquinoline-2-carboxylic acid 4-carboxymethyl-cyclohexyl ester] | ≥ 60 |
| ≥ 50 | CC(C)c1cccc(NC(=O)Nc2ccc3c(c2)CCN(C(=O)O[C@H]2CC[C@H](CC(=O)O)CC2)C3)c1 [Example 29, trans-6-[3-(3-isopropyl-phenyl)-ureido]-3,4-dihydro-1H-isoquinoline-2-carboxylic acid 4-carboxymethyl-cyclohexyl ester] | ≥ 60 |
| ≥ 50 | CC(C)Oc1cccc(NC(=O)Nc2ccc3c(c2)CCN(C(=O)O[C@H]2CC[C@H](CC(=O)O)CC2)C3)c1 [Example 30, trans-6-[3-(3-isopropoxy-phenyl)-ureido]-3,4-dihydro-1H-isoquinoline-2-carboxylic acid 4-carboxymethyl-cyclohexyl ester] | ≥ 60 |
